PMC10958117, “G-site residue S67 is involved in the fungicide-degrading activity of a tau class glutathione S-transferase from Carica papaya” (The Journal of Biological Chemistry, 2024)

Tests used:
[1] = biological target: T1, tau class glutathione S-transferase from Carica papaya (TCpGST) (Carica papaya, UniProt O49821); experiment: HPLC degradation assay ([…] after […] h); S67A inactive; format: biochemical; parameters: gene PGST1; full-length ORF (657 bp), C-terminal His6, pET-30a, E. coli BL21(DE3), Ni-NTA purified; settings: 120 min
[2] = biological target: T1, tau class glutathione S-transferase from Carica papaya (TCpGST); experiment: as above; format: biochemical; parameters: gene PGST1; settings: 120 min

T1 sequence (O49821 1-218): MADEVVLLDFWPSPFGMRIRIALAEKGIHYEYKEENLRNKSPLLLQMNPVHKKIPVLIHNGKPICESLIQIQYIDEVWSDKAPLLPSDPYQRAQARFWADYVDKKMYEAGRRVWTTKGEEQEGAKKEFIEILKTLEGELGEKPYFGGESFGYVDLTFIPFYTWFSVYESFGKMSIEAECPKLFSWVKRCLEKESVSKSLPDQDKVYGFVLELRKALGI

| % [2] [%] | Compound | % [1] [%] |
| --- | --- | --- |
|  | N#Cc1c(Cl)c(Cl)c(Cl)c(C#N)c1Cl [compound 11, chlorothalonil] | 26 |
| 69 | c1ccc2[nH]c(-c3cscn3)nc2c1 [compound 16, thiabendazole] |  |
